# Assay results from US10131652B2, “Pyrimidinyloxy benzene derivatives as herbicides” (E. I. DU PONT DE NEMOURS AND COMPANY, priority 2014, dated 2018).
# How the values were obtained:
# Assay in all cases: Test D pre-/postemergence plant response
# Format in all cases: in vivo
# [1] = tested on: large (Lg) crabgrass (Digitaria sanguinalis)
# Procedure, shortened: (§1)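 0 = no effect, 100 = complete control: plants were scored this way by visual comparison with controls 13 to 15 days post-treatment. Application was preemergence to sown loam/sand pots or postemergence to 2–18 cm seedlings in peat-based mix.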
# [2] = tested on: yellow nutsedge (Cyperus esculentus)
# Procedure, shortened: as §1
# [3] = tested on: morningglory (Ipomoea coccinea)
# Procedure, shortened: as §1
# [4] = tested on: oilseed rape (Brassica napus)
# Procedure, shortened: as §1
# [5] = tested on: galium (catchweed bedstraw, Galium aparine)
# Procedure, shortened: as §1
# soybean (Glycine max) = tested on: soybean (Glycine max)
# Procedure, shortened: as §1
# [6] = tested on: barnyardgrass (Echinochloa crus-galli)
# Procedure, shortened: as §1
# [7] = tested on: waterhemp (common waterhemp, Amaranthus rudis)
# Procedure, shortened: as §1
# [8] = tested on: giant foxtail (Setaria faberii)
# Procedure, shortened: as §1
# [9] = tested on: ragweed (common ragweed, Ambrosia elatior)
# Procedure, shortened: as §1
# [10] = tested on: johnsongrass (Sorghum halepense)
# Procedure, shortened: as §1
# corn (Zea mays) = tested on: corn (Zea mays)
# Procedure, shortened: as §1
# [11] = tested on: pigweed (Amaranthus retroflexus)
# Procedure, shortened: as §1
# [12] = tested on: winter wheat (Triticum aestivum)
# Procedure, shortened: as §1
# [13] = tested on: velvetleaf (Abutilon theophrasti)
# Procedure, shortened: as §1
# [14] = tested on: blackgrass (Alopecurus myosuroides)
# Procedure, shortened: as §1
# [15] = tested on: lambsquarters (Chenopodium album)
# Procedure, shortened: as §1
# [16] = tested on: Italian ryegrass (Lolium multiflorum)
# Procedure, shortened: as §1
# [17] = Postemergence, 31 g ai/ha, scale 0 to 100 (0 no effect, 100 complete control)
# [18] = Postemergence, 62 g ai/ha, scale 0 to 100, 0 no effect, 100 complete control
# [19] = Postemergence, 125 g ai/ha, scale 0 to 100, 0 no effect, 100 complete control
# [20] = Preemergence, 16 g ai/ha, scale 0 to 100 (0 no effect, 100 complete control)
# [21] = Preemergence, 31 g ai/ha, scale 0 to 100 (0 no effect, 100 complete control)
# [22] = Preemergence, 62 g ai/ha, scale 0 to 100 (0 no effect, 100 complete control)
compound,measurement,setting,value
Cc1cc(-c2c(F)cccc2Oc2ncc(Cl)cn2)on1 [Compound 229],"Plant response rating (scale 0 to 100), Crabgrass, Large","[1]; Postemergence, 16 g ai/ha",0
same,"Crabgrass, Large plant response rating",[1]; [17],0
same,"Plant response rating, Crabgrass, Large",[1]; [18],5
same,"Plant response rating, Crabgrass, Large",[1]; [19],5
same,"Plant response rating (scale 0 to 100), Crabgrass, Large","[1]; Preemergence, 125 g ai/ha",100
same,"Plant response rating, Crabgrass, Large",[1]; [20],75
same,"Plant response rating, Crabgrass, Large",[1]; [21],85
same,"Plant response rating, Crabgrass, Large",[1]; [22],100
same,"Plant response rating (scale 0 to 100), Nutsedge, Yellow","[2]; Postemergence, 16 g ai/ha",0
same,"Nutsedge, Yellow plant response rating",[2]; [17],0
same,"Nutsedge, Yellow plant response rating",[2]; [18],10
same,"Plant response rating, Nutsedge, Yellow",[2]; [19],10
same,"Plant response rating (scale 0 to 100), Nutsedge, Yellow","[2]; Preemergence, 125 g ai/ha",45
same,"Plant response rating, Nutsedge, Yellow",[2]; [20],0
same,"Plant response rating, Nutsedge, Yellow",[2]; [21],0
same,"Plant response rating, Nutsedge, Yellow",[2]; [22],10
same,"Plant response rating (scale 0 to 100), Morningglory","[3]; Postemergence, 16 g ai/ha",40
same,Morningglory plant response rating,[3]; [17],25
same,Morningglory plant response rating,[3]; [18],25
same,"Plant response rating, Morningglory",[3]; [19],35
same,"Plant response rating (scale 0 to 100), Morningglory","[3]; Preemergence, 125 g ai/ha",45
same,"Plant response rating, Morningglory",[3]; [20],0
same,"Plant response rating, Morningglory",[3]; [21],0
same,"Plant response rating, Morningglory",[3]; [22],35
same,"Plant response rating (scale 0 to 100), Oilseed Rape","[4]; Postemergence, 16 g ai/ha",45
same,Oilseed Rape plant response rating,[4]; [17],70
same,Oilseed Rape plant response rating,[4]; [18],60
same,"Plant response rating, Oilseed Rape",[4]; [19],80
same,"Plant response rating (scale 0 to 100), Oilseed Rape","[4]; Preemergence, 125 g ai/ha",100
same,"Plant response rating, Oilseed Rape",[4]; [20],90
same,"Plant response rating, Oilseed Rape",[4]; [21],100
same,"Plant response rating, Oilseed Rape",[4]; [22],100
same,"Plant response rating (scale 0 to 100), Galium","[5]; Postemergence, 16 g ai/ha",70
same,Galium plant response rating,[5]; [17],70
same,"Plant response rating, Galium",[5]; [18],65
same,"Plant response rating, Galium",[5]; [19],80
same,"Plant response rating (scale 0 to 100), Galium","[5]; Preemergence, 125 g ai/ha",98
same,"Plant response rating, Galium",[5]; [20],40
same,"Plant response rating, Galium",[5]; [21],80
same,"Plant response rating, Galium",[5]; [22],98
same,"Plant response rating (scale 0 to 100), Soybean","soybean (Glycine max); Postemergence, 16 g ai/ha",20
same,Soybean plant response rating,soybean (Glycine max); [17],40
same,Soybean plant response rating,soybean (Glycine max); [18],45
same,"Plant response rating, Soybean",soybean (Glycine max); [19],70
same,"Plant response rating (scale 0 to 100), Soybean","soybean (Glycine max); Preemergence, 125 g ai/ha",95
same,"Plant response rating, Soybean",soybean (Glycine max); [20],5
same,"Plant response rating, Soybean",soybean (Glycine max); [21],35
same,"Plant response rating, Soybean",soybean (Glycine max); [22],60
same,"Plant response rating (scale 0 to 100), Barnyardgrass","[6]; Postemergence, 16 g ai/ha",5
same,Barnyardgrass plant response rating,[6]; [17],5
same,"Plant response rating, Barnyardgrass",[6]; [18],5
same,"Plant response rating, Barnyardgrass",[6]; [19],10
same,"Plant response rating (scale 0 to 100), Barnyardgrass","[6]; Preemergence, 125 g ai/ha",100
same,"Plant response rating, Barnyardgrass",[6]; [20],15
same,"Plant response rating, Barnyardgrass",[6]; [21],55
same,"Plant response rating, Barnyardgrass",[6]; [22],65
same,"Plant response rating (scale 0 to 100), Waterhemp","[7]; Postemergence, 16 g ai/ha",60
same,Waterhemp plant response rating,[7]; [17],70
same,Waterhemp plant response rating,[7]; [18],80
same,"Plant response rating, Waterhemp",[7]; [19],85
same,"Plant response rating (scale 0 to 100), Waterhemp","[7]; Preemergence, 125 g ai/ha",98
same,"Plant response rating, Waterhemp",[7]; [20],95
same,"Plant response rating, Waterhemp",[7]; [21],100
same,"Plant response rating, Waterhemp",[7]; [22],98
same,"Plant response rating (scale 0 to 100), Foxtail, Giant","[8]; Postemergence, 16 g ai/ha",0
same,"Foxtail, Giant plant response rating",[8]; [17],5
same,"Plant response rating, Foxtail, Giant",[8]; [18],5
same,"Plant response rating, Foxtail, Giant",[8]; [19],15
same,"Plant response rating (scale 0 to 100), Foxtail, Giant","[8]; Preemergence, 125 g ai/ha",98
same,"Plant response rating, Foxtail, Giant",[8]; [20],5
same,"Plant response rating, Foxtail, Giant",[8]; [21],70
same,"Plant response rating, Foxtail, Giant",[8]; [22],90
same,"Plant response rating (scale 0 to 100), Ragweed","[9]; Postemergence, 16 g ai/ha",35
same,Ragweed plant response rating,[9]; [17],50
same,Ragweed plant response rating,[9]; [18],70
same,"Plant response rating, Ragweed",[9]; [19],60
same,"Plant response rating (scale 0 to 100), Ragweed","[9]; Preemergence, 125 g ai/ha",95
same,"Plant response rating, Ragweed",[9]; [20],35
same,"Plant response rating, Ragweed",[9]; [21],50
same,"Plant response rating, Ragweed",[9]; [22],55
same,"Plant response rating (scale 0 to 100), Johnsongrass","[10]; Postemergence, 16 g ai/ha",0
same,Johnsongrass plant response rating,[10]; [17],0
same,"Plant response rating, Johnsongrass",[10]; [18],0
same,"Plant response rating, Johnsongrass",[10]; [19],25
same,"Plant response rating (scale 0 to 100), Johnsongrass","[10]; Preemergence, 125 g ai/ha",70
same,"Plant response rating, Johnsongrass",[10]; [20],10
same,"Plant response rating, Johnsongrass",[10]; [21],10
same,"Plant response rating, Johnsongrass",[10]; [22],45
same,"Plant response rating (scale 0 to 100), Corn","corn (Zea mays); Postemergence, 16 g ai/ha",5
same,Corn plant response rating,corn (Zea mays); [17],20
same,"Plant response rating, Corn",corn (Zea mays); [18],5
same,"Plant response rating, Corn",corn (Zea mays); [19],5
same,"Plant response rating (scale 0 to 100), Corn","corn (Zea mays); Preemergence, 125 g ai/ha",40
same,"Plant response rating, Corn",corn (Zea mays); [20],0
same,"Plant response rating, Corn",corn (Zea mays); [21],5
same,"Plant response rating, Corn",corn (Zea mays); [22],5
same,"Plant response rating (scale 0 to 100), Pigweed","[11]; Postemergence, 16 g ai/ha",55
same,Pigweed plant response rating,[11]; [17],60
same,Pigweed plant response rating,[11]; [18],70
same,"Plant response rating, Pigweed",[11]; [19],80
same,"Plant response rating (scale 0 to 100), Pigweed","[11]; Preemergence, 125 g ai/ha",100
same,"Plant response rating, Pigweed",[11]; [20],100
same,"Plant response rating, Pigweed",[11]; [21],100
same,"Plant response rating, Pigweed",[11]; [22],100
same,"Plant response rating (scale 0 to 100), Wheat","[12]; Postemergence, 16 g ai/ha",0
same,Wheat plant response rating,[12]; [17],10
same,Wheat plant response rating,[12]; [18],5
same,"Plant response rating, Wheat",[12]; [19],10
same,"Plant response rating (scale 0 to 100), Wheat","[12]; Preemergence, 125 g ai/ha",15
same,"Plant response rating, Wheat",[12]; [20],0
same,"Plant response rating, Wheat",[12]; [21],0
same,"Plant response rating, Wheat",[12]; [22],0
same,"Plant response rating (scale 0 to 100), Velvetleaf","[13]; Postemergence, 16 g ai/ha",15
same,Velvetleaf plant response rating,[13]; [17],60
same,Velvetleaf plant response rating,[13]; [18],45
same,"Plant response rating, Velvetleaf",[13]; [19],70
same,"Plant response rating (scale 0 to 100), Velvetleaf","[13]; Preemergence, 125 g ai/ha",100
same,"Plant response rating, Velvetleaf",[13]; [20],70
same,"Plant response rating, Velvetleaf",[13]; [21],90
same,"Plant response rating, Velvetleaf",[13]; [22],100
same,"Plant response rating (scale 0 to 100), Blackgrass","[14]; Postemergence, 16 g ai/ha",0
same,Blackgrass plant response rating,[14]; [17],10
same,"Plant response rating, Blackgrass",[14]; [18],15
same,"Plant response rating, Blackgrass",[14]; [19],10
same,"Plant response rating (scale 0 to 100), Blackgrass","[14]; Preemergence, 125 g ai/ha",85
same,"Plant response rating, Blackgrass",[14]; [20],15
same,"Plant response rating, Blackgrass",[14]; [21],15
same,"Plant response rating, Blackgrass",[14]; [22],70
same,"Plant response rating (scale 0 to 100), Lambsquarters","[15]; Postemergence, 16 g ai/ha",60
same,Lambsquarters plant response rating,[15]; [17],70
same,Lambsquarters plant response rating,[15]; [18],70
same,"Plant response rating, Lambsquarters",[15]; [19],85
same,"Plant response rating (scale 0 to 100), Lambsquarters","[15]; Preemergence, 125 g ai/ha",95
same,"Plant response rating, Lambsquarters",[15]; [20],35
same,"Plant response rating, Lambsquarters",[15]; [21],80
same,"Plant response rating, Lambsquarters",[15]; [22],80
same,"Plant response rating (scale 0 to 100), Ryegrass, Italian","[16]; Postemergence, 16 g ai/ha",0
same,"Ryegrass, Italian plant response rating",[16]; [17],0
same,"Ryegrass, Italian plant response rating",[16]; [18],0
same,"Plant response rating, Ryegrass, Italian",[16]; [19],5
same,"Plant response rating (scale 0 to 100), Ryegrass, Italian","[16]; Preemergence, 125 g ai/ha",60
same,"Plant response rating, Ryegrass, Italian",[16]; [20],0
same,"Plant response rating, Ryegrass, Italian",[16]; [21],20
same,"Plant response rating, Ryegrass, Italian",[16]; [22],20
